In PMC3401096 (Molecular Biosystems, 2009):
Structures can show the parent of a compound that is named as a salt. Where two headings read alike, the source gives them in different places.

How the values were obtained:
JMJD2E [1] = molecular target: T1, JMJD2E (Homo sapiens, UniProt B2RXH2)
T1 sequence (B2RXH2 1-337): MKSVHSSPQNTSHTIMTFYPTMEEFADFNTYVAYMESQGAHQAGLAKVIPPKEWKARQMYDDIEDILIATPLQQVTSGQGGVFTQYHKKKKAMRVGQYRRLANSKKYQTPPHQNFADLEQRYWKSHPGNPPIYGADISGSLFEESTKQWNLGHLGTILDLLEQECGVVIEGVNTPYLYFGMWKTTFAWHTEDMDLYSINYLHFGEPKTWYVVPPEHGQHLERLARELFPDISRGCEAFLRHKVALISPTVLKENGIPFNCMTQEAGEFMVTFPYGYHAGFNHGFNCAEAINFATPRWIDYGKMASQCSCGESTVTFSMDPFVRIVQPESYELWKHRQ

JMJD2E [2] = molecular target: T1, JMJD2E; assay: biochemical
JMJD2E [3] = molecular target: T1, JMJD2E; assay: miniaturized 1,536-well FDH-coupled JMJD2E qHTS assay; type: biochemical
JMJD2E [4] = molecular target: T1, JMJD2E; assay: kinetic analysis of the mode of inhibition of JMJD2E with respect to 2OG; type: biochemical

Compound: C[C@](N)(Cc1ccc(O)c(O)c1)C(=O)O [L-Methyldopa]
- IC50 (JMJD2E [1]): 6.1 µM

Compound: CC1(C)CCC2=C(O1)c1ccccc1C(=O)C2=O [beta-Lapachone]
- IC50 (JMJD2E [2]): 8.4 µM
- IC50 (JMJD2E [3]): 3.6 µM

Compound: S(−)-Carbidopa
- IC50 (JMJD2E [1]): 7.5 µM
- mode of inhibition of JMJD2E with respect to 2OG (JMJD2E [4]): uncompetitive
- αKi (JMJD2E [4]; uncompetitive with respect to 2OG): 1.98 ± 0.17

Compound: Oc1cc(O)c2c(c1)O[C@H](c1cc(O)c(O)c(O)c1)[C@H](O)C2 [Epigallocatechin]
- IC50 (JMJD2E [3]): 5 µM

Compound: NCCc1cc(O)c(O)cc1O [Oxidopamine Hydrochloride]
- IC50 (JMJD2E [2]): 12.2 µM
- IC50 (JMJD2E [3]): 4 µM

Compound: Oc1ccc(C2CNCCc3c2cc(O)c(O)c3Cl)cc1 (stereo not shown) [Fenoldopam bromide]
- IC50 (JMJD2E [2]): 10.1 µM
- IC50 (JMJD2E [3]): 7.9 µM

Compound: O=c1cc(-c2ccccc2)oc2cc(O)c(O)c(O)c12 [Baicalein]
- mode of inhibition of JMJD2E with respect to 2OG (JMJD2E [4]): noncompetitive
- IC50 (JMJD2E [2]): 4.5 µM
- IC50 (JMJD2E [3]): 4 µM

Compound: NCCc1ccc(O)c(O)c1 [Dopamine hydrochloride]
- IC50 (JMJD2E [2]): 2.2 µM
- IC50 (JMJD2E [3]): 7.1 µM

Compound: O=C(O[C@@H]1Cc2c(O)cc(O)cc2O[C@@H]1c1cc(O)c(O)c(O)c1)c1cc(O)c(O)c(O)c1 [Epigallocatechin gallate]
- IC50 (JMJD2E [1]): 3 µM

Compound: Oc1cc2c(cc1O)[C@@H]1c3ccc(O)c(O)c3OC[C@]1(O)C2 [hematoxylin]
- IC50 (JMJD2E [2]): 3.4 µM
- IC50 (JMJD2E [3]): 2 µM
